One assay deals with ROS level in DRG neurons. Kind of assay: ROS level in DRG neurons by DCFH-DA flow cytometry. Type of assay: in vivo, rat. To be noted: SNI rats, 50 μg/kg i.th, 3 h after administration, versus vehicle. An excerpt:
(§1) The SNI surgery was constructed as previously described^16, 17. In brief, after animals were anesthetized by isoflurane (1.5-2.5%), a half centimeter incision was made in the middle of the outer. Muscles from the upper layer were bluntly dissected to expose the sciatic nerve and its branches to the left hind leg's common peroneal, tibial, and peroneal nerves. Then, the front two nerves were clipped, and the […]. In the sham-operated group, the sciatic nerve was only exposed, and no clipping or injury was done. After suturing the skin, animals were transferred to an observation box for recovery.
Intrathecal administration of vehicle or drugs was conducted by direct lumbar puncture in the L5-L6 intervertebral space with a 30-gauge needle following the method of Mestre^18. […]
ROS level of DRG neurons were labeled by ROS Assay Kit (Beyotime Co., Ltd., China) and detected by flow cytometry according to the manufacturer's instructions. […] However, after entering the cell, DCFH-DA is hydrolyzed by cellular esterase to generate DCFH (2′,7′-dichlorodihydrofluorescein), which is non-permeable to the cell membrane, and can be oxidized by ROS into fluorescent DCF (2′,7′-dichlorofluorescein) that can be detected by flow cytometry. The fluorescence intensity represents the intracellular ROS levels.
(In general: Flow cytometry measures light scatter and fluorescence of single cells or particles in a stream.)

A further assay relates to NRF2. Kind of assay: Immunoblot of NRF2 expression in L4-L6 DRG of SNI rats. The format is in vivo, rat. Particulars: 50 μg/kg, DRG collected 3 h after administration, versus vehicle.
Description: as §1
(§2) Intrathecal administration of vehicle or drugs was conducted by direct lumbar puncture in the L5-L6 intervertebral space with a 30-gauge needle following the method of Mestre^18. This procedure was performed under isoflurane anesthesia to permit rapid recovery of the animals. The quality of each injection was ensured by the observation of an injection-induced tail-flick.
For western blotting, L4-6 DRGs were extracted from the ipsilateral surgery of SNI rats and stored in liquid nitrogen to be set aside. DRGs were then sheared in pre-cooled potent RIPA lysate (containing protease and phosphatase inhibitors) and their whole cell lysates were obtained by ultrasonic crushing on ice. […] Immunoreactive bands were detected by chemiluminescence.
For orientation: Immunoblotting shows a protein as a band on a membrane.

The subject of assay [1] is spared nerve injury (SNI) rat model. Kind of assay: Acetone test, cold allodynia in SNI rats. The format is in vivo. Particulars: 50 μg/kg/day intrathecally, from 14 days post injury.
Description: as §1, §2
Assessment of cold allodynia was using acetone test^20. Animals were placed in the assessment cage described above for habituation. Acetone was collected by pipette for each trial. […] As the acetone fast spread across the plantar skin and evaporated, noxious withdrawal responses of the hind paw (fluttering, licking, or hanging) against the cold stimuli was recorded. […]

The test system is the same in assay [2]. The experiment in a line: Von Frey test, mechanical allodynia in spared nerve injury (SNI) rats. To be noted: 50 μg/kg/day intrathecally, from 14 days post injury. The format is in vivo.
Description: as §1, §2
Assessment of mechanical allodynia was using the Von Frey test as previously described^17. The animals were placed in plastic cages with metal mesh on the bottom and allowed to acclimatize for at least half an hour before each test. Each Von Frey wire was held perpendicular to the contact surface of the paw until it bent. […]

Assay [3] has the same test system. Kind of assay: Pin test, hyperalgesia in SNI rats. Particulars: 50 μg/kg/day intrathecally, from 14 days post injury. Type of assay: in vivo.
Description: as §1, §2
Hyperalgesia was evaluated by pin test described previously^20. […] Normal response (brief flinch) or noxious-like response (sustained elevation of the paw with licking, shaking, or grooming) was recorded in 10 repeated trials with a minimum of 10 seconds' gap. Data was expressed as percentage of noxious-like response out of 10 trials.

The subject of assay [4] is voltage-gated sodium (NaV) channels. The experiment in a line: Whole-cell voltage clamp of NaV currents in small diameter DRG neurons. The format is cell-based, rat. Particulars: primary cultured small diameter (<30 μm) DRG neurons, 20 μM overnight. Here is the method: DRG neurons were obtained from rodents by acute isolation as previously described^21, 22. After animals were euthanized, the dorsal skin was removed to perform laminectomy to expose DRG, L4-L6 DRGs were rapidly collected from the intervertebral foramen. The collected DRGs were digested in 3 mL bicarbonate-free, serum-free, sterile DMEM (cat. no. 11965; Thermo Fisher Scientific) containing a mixture of enzymes (neutral protease, 3.125 mg/mL (cat. no. LS02104; Worthington) and collagenase Type I 5 mg/mL (cat. no. LS004194; Worthington)), incubated in a shaker at 37° C. […]
(§3) Whole-cell voltage clamp recording was performed as previously described. […] Data were obtained by Patchmaster (HEKA) and analyzed with Fitmaster (HEKA). […]
(§4) NaV currents were measured from rodent DRG small diameter (<30 μm) neurons. […] This process occurs between 0 and 10 mV and can be analyzed as a function of voltage, as inferred from the peak current density (normalized to the cell capacitance (picofarad, pF)); (ii) Inactivation protocol: starting from a clamp potential of −60 mV, a hyperpolarization/depolarization pulse of 1 second in the range of −120 to 20 mV, in steps of +10 mV for 1 second. […] The Boltzmann relevant factors, similar to half-maximal activation (V50) and slope, for the single fits to the data, are calculated, summarized, and compared among groups. […]

The next assay concerns the target T1, NaV1.7 (Homo sapiens, UniProt Q15858).
T1 construct: conflicts with the methods; host or cells: HEK293
Kind of assay: Whole-cell voltage clamp of NaV1.7 currents in transfected HEK293 cells. The format is cell-based. On the procedure:
HEK293 cells were purchased from Shanghai Institute of Biological Sciences, Chinese Academy of Sciences. HEK293 cells were cultured in medium (DMEM containing 10% fetal bovine serum and 1% penicillin/streptomycin) in an atmosphere of 5% CO2 at 37° C.
The NaV1.7 sequence was synthesized by GenScript (Nanjing, Jiangsu Province, China) and inserted into the pcDNA3.1 (+)-C-DYK plasmid between the BamH1 and EcoRI restriction sites. The empty plasmid of pcDNA3.1 purchased from Shenzhen Yanming Biotechnology Company was used as a mock transfection control. […]
as §3, §4

T1 sequence (Q15858 whole entry): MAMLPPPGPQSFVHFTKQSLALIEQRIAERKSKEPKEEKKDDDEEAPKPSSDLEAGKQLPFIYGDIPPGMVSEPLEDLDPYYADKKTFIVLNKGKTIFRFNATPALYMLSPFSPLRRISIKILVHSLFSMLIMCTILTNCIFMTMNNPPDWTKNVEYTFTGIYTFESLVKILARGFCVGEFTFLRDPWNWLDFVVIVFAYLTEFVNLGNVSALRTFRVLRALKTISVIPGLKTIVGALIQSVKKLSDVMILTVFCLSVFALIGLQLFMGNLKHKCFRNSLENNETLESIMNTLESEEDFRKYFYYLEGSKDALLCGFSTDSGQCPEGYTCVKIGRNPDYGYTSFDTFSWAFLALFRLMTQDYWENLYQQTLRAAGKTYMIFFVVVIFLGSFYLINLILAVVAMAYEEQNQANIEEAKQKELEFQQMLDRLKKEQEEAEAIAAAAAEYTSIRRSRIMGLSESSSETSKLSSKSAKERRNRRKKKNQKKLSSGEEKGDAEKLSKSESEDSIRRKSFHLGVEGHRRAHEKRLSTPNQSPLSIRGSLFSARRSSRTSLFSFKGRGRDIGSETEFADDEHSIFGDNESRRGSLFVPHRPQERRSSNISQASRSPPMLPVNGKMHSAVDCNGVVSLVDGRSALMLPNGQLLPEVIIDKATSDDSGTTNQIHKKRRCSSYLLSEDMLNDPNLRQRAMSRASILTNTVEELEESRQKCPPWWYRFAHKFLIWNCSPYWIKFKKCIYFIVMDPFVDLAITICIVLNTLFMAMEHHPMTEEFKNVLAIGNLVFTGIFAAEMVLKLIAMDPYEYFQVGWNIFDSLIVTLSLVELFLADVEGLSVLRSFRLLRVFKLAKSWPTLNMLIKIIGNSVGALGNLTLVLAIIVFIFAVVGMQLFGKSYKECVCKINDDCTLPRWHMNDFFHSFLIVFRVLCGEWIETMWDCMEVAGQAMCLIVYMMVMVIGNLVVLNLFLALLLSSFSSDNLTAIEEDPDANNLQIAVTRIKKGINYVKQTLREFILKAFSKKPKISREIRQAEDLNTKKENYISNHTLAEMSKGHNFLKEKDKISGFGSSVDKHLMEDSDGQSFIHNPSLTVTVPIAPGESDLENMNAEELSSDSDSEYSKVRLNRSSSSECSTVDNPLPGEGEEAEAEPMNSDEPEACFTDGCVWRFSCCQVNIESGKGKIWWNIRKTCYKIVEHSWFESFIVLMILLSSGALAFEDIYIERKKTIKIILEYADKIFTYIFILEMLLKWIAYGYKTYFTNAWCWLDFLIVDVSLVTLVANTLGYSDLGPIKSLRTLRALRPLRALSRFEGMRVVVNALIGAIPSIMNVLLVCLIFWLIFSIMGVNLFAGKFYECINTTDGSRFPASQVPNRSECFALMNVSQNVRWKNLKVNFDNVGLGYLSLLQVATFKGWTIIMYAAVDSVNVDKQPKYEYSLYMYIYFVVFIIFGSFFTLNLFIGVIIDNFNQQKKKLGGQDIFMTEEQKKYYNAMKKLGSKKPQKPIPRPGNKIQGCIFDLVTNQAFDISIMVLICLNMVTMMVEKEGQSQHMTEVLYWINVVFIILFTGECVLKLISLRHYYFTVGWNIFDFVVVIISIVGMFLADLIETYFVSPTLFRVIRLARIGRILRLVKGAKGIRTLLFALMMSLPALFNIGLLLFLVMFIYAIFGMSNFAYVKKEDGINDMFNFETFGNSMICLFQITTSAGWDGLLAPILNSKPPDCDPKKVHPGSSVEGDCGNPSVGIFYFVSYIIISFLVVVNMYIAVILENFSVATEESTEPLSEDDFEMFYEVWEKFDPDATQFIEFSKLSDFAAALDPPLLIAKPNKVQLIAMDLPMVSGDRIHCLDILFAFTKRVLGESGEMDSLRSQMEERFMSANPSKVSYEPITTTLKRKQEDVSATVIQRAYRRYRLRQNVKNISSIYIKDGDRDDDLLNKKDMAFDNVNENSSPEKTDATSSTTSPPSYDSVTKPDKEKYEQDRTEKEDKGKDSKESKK

For the compound `Cc1ccc(-c2noc(-c3ccc(F)c(F)c3)n2)cn1` [Compound 1, 5-(3,4-difluorophenyl)-3-(6-methylpyridin-3-yl)-1,2,4-oxadiazole], the “ROS level in DRG neurons (DCF staining)” value with ROS level in DRG neurons is listed as “decreased”. Moreover, in the assay on NRF2, the “expression level of NRF2 in L4-L6 DRG” value is given as “increased the expression level of NRF2”. The “max inhibiting rate in cold allodynia” value in assay [1] is approximately 35.0%. Besides, the “max inhibiting rate in mechanical allodynia” value in assay [2] is reported as “about 70.0%”. Also, the “max inhibiting rate in hyperalgesia” value in assay [3] is approximately 37.5%. Besides, the “inhibition of NaV currents” value in assay [4] was “significant inhibition of NaV currents”. Moreover, on NaV1.7 (HEK293 cells transfected with NaV1.7, pre-treated with H2O2 (500 μM, 20 min), then 20 μM overnight), the “inhibition of NaV1.7 current density under excessive oxidative stress” value is given as “Same inhibiting properties”. The “inhibition of NaV1.7 current density” value against NaV1.7 (HEK293 cells transfected with NaV1.7 plasmid, 20 μM overnight) is “significantly inhibited NaV1.7 current density”.

Values taken from patent US20250221976A1, “COMPOUNDS, COMPOSITIONS AND METHODS OF TREATING NEUROPATHIC PAIN” (THE UNIVERSITY OF HONG KONG, priority 2024, published 2025).
